Laboratory results reported in patent publication EP1919471B1, “(INDOL-3-YL)-HETEROCYCLE DERIVATIVES AS AGONISTS OF THE CANNABINOID CB1 RECEPTOR” (Merck Sharp & Dohme B.V., priority 2005, dated 2007).

Assays:
[1] = molecular target: T1, human CB1 receptor (Homo sapiens, UniProt P21554); experiment: In-vitro determination of efficacy and potency at the human CB1 receptor expressed in CHO cells (luciferase reporter assay); assay type: cell-based; details: CHO cells expressing the human CB1 receptor and a luciferase reporter gene; 5 h at 37 °C
T1 construct: expressed in transfected cells; host or cells: CHO (Chinese Hamster Ovary) cells
Description: Methods to determine receptor binding as well as in vitro biological activity of cannabinoid receptor modulators are well known in the art. In general, expressed receptor is contacted with the compound to be tested and binding or stimulation or inhibition of a functional response is measured. To measure a functional response isolated DNA encoding the CB1 receptor gene, preferably the human receptor, is expressed in suitable host cells. Such a cell might be the Chinese Hamster Ovary cell, but other cells are also suitable. Preferably the cells are of mammalian origin. Methods to construct recombinant CB1 expressing cell lines are well known in the art (Sambrook et al, Molecular Cloning: a Laboratory Manual, Cold Spring Harbor Laboratory Press, Cold Spring Harbor, latest edition). Expression of the receptor is attained by expression of the DNA encoding the desired protein. Techniques for ligation of additional sequences and construction of suitable expression systems are all, by now, well known in the art. Portions or all of the DNA encoding the desired protein can be constructed synthetically using standard solid phase techniques, preferably to include restriction sites for ease of ligation. Suitable control elements for transcription and translation of the included coding sequence can be provided to the DNA coding sequences. As is well known, expression systems are now available which are compatible with a wide variety of hosts, including prokaryotic hosts such as bacteria and eukaryotic hosts such as yeast, plant cells, insect cells, mammalian cells, avian cells and the like. Cells expressing the receptor are then contacted with the test compound to observe binding, or stimulation or inhibition of a functional response. Alternatively isolated cell membranes containing the expressed CB1 (or CB2) receptor may be used to measure binding of compound. For measurement of binding radioactively or fluorescently labelled compounds may be used. The most widely used radiolabelled cannabinoid probe is [^3H]CP55940, which has approximately equal affinity for CB1 and CB2 binding sites. Functional CB1 agonist activity may be measured by determining the second messenger response, such as for example measurement of receptor mediated changes in cAMP or MAPkinase pathways. Thus, such a method involves expression of the CB1 receptor on the cell surface of a host cell and exposing the cell to the test compound. The second messenger response is then measured. The level of second messenger will be reduced or increased, depending on the effect of the test compound upon binding to the receptor.
In-vitro determination of efficacy and potency at the human CB1 receptor expressed in CHO cells
Chinese Hamster Ovary (CHO) cells expressing the human CB1 receptor and a luciferase reporter gene were suspended in phenol red/serum free DMEM/F-12 nut mix containing penicillin/streptomycin (50U/50 µg/ml) and fungizone (1 µg/ml) and seeded into 96 well plates at a density of 3 x 10^4 cells per well (100 µl final volume). Cells were incubated overnight (approx. 18 h at 37°C, 5% CO2/95% air) prior to assay. The test compound (10 mM solution in dimethylsulfoxide) was diluted in F12 Nut Mix to give a range of stock solutions from 0.11 mM to 0.11 nM. The stock solutions (10 µl) were added directly to the relevant wells. The plates were incubated at 37 °C for 5 h to allow agonist-induced expression of the luciferase enzyme. Under subdued light, LucLite substrate (Packard; reconstituted as per manufacturer's instructions; 100 µl) was added to each well. Plates were covered with Top Seal and then incubated at room temperature for 5 minutes before counting on the Packard TopCount (single photon counting, 0.01 minute count time, 5 minute count delay). A "best-fit" curve was fitted by a minimum sum of squares method to the plot of counts per second (CPS) against compound concentration (M) to obtain an EC50 value. […]

[2] = system: Mice; experiment: Formalin Paw Test in Mice; assay type: in vivo; details: Mus musculus, iv, administered intravenously 5 minutes before 5% formalin, Phase 2 = between 20 and 30 min after formalin injection, read-out: ED50, inhibition of the nociceptive behaviour of Phase 2
Description: Formalin Paw Test in Mice
Four - six groups of six mice were treated with vehicle and one of four to five doses of the test compound (typically between 0.03, 0.1, 3 and 10 µmol/kg), administered intravenously into the tail vein (vehicle: 10% Tween-80 in saline; injection volume 10 ml/kg). This injection was followed 5 minutes later by 20 µl of 5% formalin, which was administered sub-cutaneously to the dorsum of the left hind paw. Immediately after formalin administration the animal was placed in a test chamber and data acquisition, using a detection device (Automated Nociception Analyser (ANA); Department of Anesthesiology, University of California, San Diego), was started, independently for each chamber. The nociceptive behaviour was measured as the number of counts (licking, lifting, biting and flinching actions) detected within the two phases of nociception (Yaksh et al, 2001). The nociceptive behaviour between 0 and 5 min after formalin injection (Phase 1) and between 20 and 30 min after formalin injection (Phase 2) was recorded and number of counts for each mouse, compared to the mean number of counts for the vehicle treated animals, was calculated. Once values for each mouse were obtained, the mean and s.e.m. were calculated for each treatment group. The percent inhibition data were then used to calculate ED50 values for Phase 1 and Phase 2.

T1 sequence (P21554 whole entry): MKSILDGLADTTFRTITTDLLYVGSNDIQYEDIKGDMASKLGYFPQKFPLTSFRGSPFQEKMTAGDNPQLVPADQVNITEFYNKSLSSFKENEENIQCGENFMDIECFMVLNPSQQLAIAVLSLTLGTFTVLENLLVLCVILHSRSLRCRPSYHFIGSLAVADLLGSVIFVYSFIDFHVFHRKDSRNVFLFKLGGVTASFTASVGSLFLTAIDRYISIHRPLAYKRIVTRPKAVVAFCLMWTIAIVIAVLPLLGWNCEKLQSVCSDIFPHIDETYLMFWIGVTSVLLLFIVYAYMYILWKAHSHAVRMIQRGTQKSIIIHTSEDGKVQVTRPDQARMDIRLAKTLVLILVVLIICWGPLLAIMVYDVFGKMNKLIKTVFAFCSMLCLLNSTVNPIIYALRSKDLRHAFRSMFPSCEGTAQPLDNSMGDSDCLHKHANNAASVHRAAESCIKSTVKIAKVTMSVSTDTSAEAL

Compound | pEC50 [1] | EC50 [1] [nM] | ED50 [2] [µmol/kg]
7-Ethyl-3-[(5-{N-[4-(carboxamido)methyl]piperidin-1-yl}methyl)-([1,2,4]-thiadiazol-3-yl)]-1-(tetrahydropyran-4-yl)methyl-1H-indole [Example 12] | 6.9 |  | 
COCCN(Cc1nc(-c2cn(CC3CCOCC3)c3c(Cl)cccc23)ns1)S(C)(=O)=O [Example 7, 7-Chloro-3-({5-[(N-{2-methoxy}ethyl)-(N-{methylsulfonyl})amino]methyl}-([1,2,4]-thiadiazol-3-yl))-1-(tetrahydropyran-4-yl)methyl-1H-indole] |  | 79.4 | 
CCc1cccc2c(-c3nsc(CN(C)CC(N)=O)n3)cn(CC3CCOCC3)c12 [Example 9, 7-Ethyl-3-[(5-{[N-(carboxamido)methyl]-N-methylamino}methyl)-([1,2,4]-thiadiazol-3-yl)]-1-(tetrahydropyran-4-yl)methyl-1H-indole] |  | 126 | 
CCc1cccc2c(-c3nsc(CN4CCC(C(=O)NCCO)CC4)n3)cn(CC3CCOCC3)c12 [Example 10A, 7-Ethyl-3-[(5-{4-[(N-{2-hydroxy}ethyl)carboxamido]piperidin-1-yl}methyl)-([1,2,4]-thiadiazol-3-yl)]-1-(tetrahydropyran-4-yl)methyl-1H-indole] |  | 12.6 | < 5
O=C(NCCO)[C@H]1CCCN(Cc2nc(-c3cn(CC4CCS(=O)(=O)CC4)c4c(Cl)cccc34)ns2)C1 [Example 13, (S)-7-Chloro-3-[(5-{[3-N-(2-hydroxyethyl)carboxamido]piperidin-1-yl}methyl)-([1,2,4]-thiadiazol-3-yl)]-1-(1,1-dioxo-hexahydrothiopyran-4-yl)methyl-1H-indole] | 6.9 |  | 
CS(=O)(=O)N(CCO)Cc1nc(-c2cn(CC3CCOCC3)c3c(Cl)cccc23)ns1 [Example 15, 7-Chloro-3-({5-[(N-{2-hydroxy}ethyl)-(N-{methylsulfonyl})amino]methyl}-([1,2,4]-thiadiazol-3-yl))-1-(tetrahydropyran-4-yl)methyl-1H-indole] |  | 20 | < 5
OCC1CCN(Cc2nnc(-c3cn(CC4CCCCC4)c4c(Cl)cccc34)o2)CC1 [Example 17, 7-Chloro-3-[(5-{4-[hydroxymethyl]piperidin-1-yl}methyl)-([1,3,4]-oxadiazol-2-yl)]-1-(cyclohexyl)methyl-1H-indole] |  | 126 | 
CS(=O)(=O)N1CCC[C@H]1c1nnc(-c2cn(CC3CCOCC3)c3c(Cl)cccc23)o1 [Example 18, (S)-7-Chloro-3-[(5-{N-methylsulfonyl}pyrrolidin-2-yl)-([1,3,4]-oxadiazol-2-yl)]-1-(tetrahydropyran-4-yl)methyl-1H-indole] | 7.2 |  | 
O=C(NCCO)C1CCN(Cc2nc(-c3cn(CC4CCOCC4)c4c(Cl)cccc34)no2)CC1 [Example 19, 7-Chloro-3-[(5-{4-[(N-{2-hydroxy}ethyl)carboxamido]piperidin-1-yl}methyl)-([1,2,4]oxadiazol-3-yl)]-1-(tetrahydropyran-4-yl)methyl-1H-indole] |  | 79.4 | < 5
CN(CC(N)=O)Cc1nc(-c2cn(CC3CCOCC3)c3c(Cl)cccc23)no1 [Example 20, 7-Chloro-3-[(5-{[N-(carboxamido)methyl]-N-methylamino}methyl)-([1,2,4]oxadiazol-3-yl)]-1-(tetrahydropyran-4-yl)methyl-1H-indole] |  | 39.8 | < 5
CN(CC(=O)NCC(N)=O)Cc1nc(-c2cn(CC3CCOCC3)c3c(Cl)cccc23)no1 [Example 20A] |  | 31.6 | 
CN(CC(=O)NCCO)Cc1nc(-c2cn(CC3CCOCC3)c3c(Cl)cccc23)no1 [Example 20B, 7-Chloro-3-({5-[(N-{[N-(2-hydroxyethyl)]carboxamido}methyl)-N-methylamino]methyl}-[1,2,4]oxadiazol-3-yl)-1-(tetrahydropyran-4-yl)methyl-1H-indole] |  | 50.1 | 
COCC(=O)NCc1nc(-c2cn(CC3CCOCC3)c3c(Cl)cccc23)no1 [Example 24, 7-Chloro-3-[(5-{[N-methoxymethylformyl]amino}methyl)-([1,2,4]-oxadiazol-3-yl)]-1-(tetrahydropyran-4-yl)methyl-1H-indole] |  | 200 | 
CN(C)S(=O)(=O)N(CCO)Cc1nc(-c2cn(CC3CCOCC3)c3c(Cl)cccc23)no1 [Example 25, 7-Chloro-3-[(5-{N-(N',N'-dimethylsulfonamido)}-(N-{2-hydroxy}ethylamino)methyl)-([1,2,4]-oxadiazol-3-yl)]-1-(tetrahydropyran-4-yl)methyl-1H-indole] |  | 100 | 
